In patent US12171807B2, “Use of bremelanotide in patients with controlled hypertension” (Cosette Pharmaceuticals, Inc., priority 2020, dated 2024):

Experiments:
[1] = Repeat dosing ambulatory blood pressure monitoring study, bremelanotide 1.75 mg SC daily for 8 days then randomized withdrawal (days 9 to 16); type: in vivo, human; conditions: for mean change (95% CI) in daytime systolic BP: day 8; for Difference from Baseline, daytime diastolic BP at Day 8 / Difference from Baseline, daytime systolic BP at Day 8: BP in mmHg
Protocol: The study focusing on the impact of repeat dosing on blood pressure included 127 women treated with bremelanotide 1.75 mg administered subcutaneously (SC) daily for 8 consecutive days, followed by a randomized withdrawal period of 8 additional consecutive days (days 9 to 16) in which study participants were randomized to either remain on bremelanotide 1.75 mg SC daily or placebo SC daily. Ambulatory blood pressure monitoring was performed on baseline day −1 (single blind placebo), day 8 and on day 16. After 8 days of dosing of bremelanotide 1.75 mg SC, the mean changes from baseline in the 24 hour systolic and diastolic BPs (FIG. 1) were below 2 mmHg. Importantly, the upper bound of the 95% confidence interval for the mean changes in daytime systolic BP (a pre-specified outcome) was below 4 mmHg. These increases in BP were accompanied by small to no reductions in the heart rate of 1 beat/minute or less.
There were 122 (96%) study participants who completed the randomized withdrawal portion of the study. […] In those randomized to placebo, returns toward baseline BP values were observed (generally a 2 mmHg decline from day 8).
The patient population was comprised of normotensive premenopausal women and included 2 women with a medical history of hypertension on antihypertensive therapy. One subject was being treated for hypertension with Lisinopril. The other subject was being treated for hypertension with chlorthalidone. Both subjects received all 16 injections; 8 doses in the Open-Label Period and 8 doses in the Randomized Withdrawal Period (one subject was randomized to each treatment group). […] The mean changes from Baseline (Day −1) at Day 8 during daytime in these two subjects are shown in the below table. Changes in daytime HR at Day 8 were −1.7 bpm for the subject and −1.4 bpm for the subject.
In order to better understand the potential effects of the drug in patients with higher BP values at baseline, an exploratory analysis was performed from the trial evaluating those women whose baseline BP was in the 90th percentile (pre-dose systolic BP >124 mmHg) to determine if the pressor response of bremelanotide differed from those study participants whose baseline BP was below the 90th percentile (pre-dose systolic BP <124 mmHg). At day 8, mean changes (95% CI) from the daytime systolic BP in those study participants in the 90th percentile or greater (n=17) at baseline was −0.16 (−2.06, 1.75) mmHg versus 2.03 (1.70, 2.36) mmHg in those whose baseline systolic BP was below the 90th percentile.

[2] = Drug-drug interaction study with antihypertensive agents, single dose bremelanotide 1.75 mg SC vs placebo, ambulatory BP monitoring; type: in vivo, human
Protocol: An additional study evaluated the effects of single doses of bremelanotide 1.75 mg SC and placebo SC in normotensive, healthy women pre-treated with 5 different classes of antihypertensive drugs in a double-blind cross-over design using ambulatory BP monitoring. The washout period between randomized, blinded treatments was 48 hours. This study included both premenopausal and postmenopausal women. There were 15 healthy […] subjects in each panel of the antihypertensive medications with the exception of the beta-blocker metoprolol (n=17). Blood pressures at baseline in the various panels were low normal (24 hour systolic BPs ranging from 109 to 114 mmHg and 24 hour diastolic BPs ranging from 67 to 72 mmHg (FIG. 2). The placebo-corrected changes from baseline in the 24-hour systolic BPs on bremelanotide 1.75 mg SC ranged from 1.7 mmHg on amlodipine to 3.8 mmHg on hydrochlorothiazide; changes in the 24 hour diastolic BPs ranged from 1.8 mmHg on metoprolol to 2.8 mmHg on lisinopril. In 4 of the 5 classes of antihypertensive medications, nighttime BP changes were substantially lower than daytime BP changes. In study participants pre-treated with hydrochlorothiazide 12.5 mg daily, nighttime BPs increased by 5.5/4.5 mmHg. In review of individual subjects in the HCTZ panel, it was noted that 4 study participants had large reductions in nighttime SBP (10-15 mmHg) on placebo while on bremelanotide 4 study participants had large increases in nighttime SBP (10-15 mmHg).
1. […] There was an elevation in nighttime BP in patients pre-treated with hydrochlorothiazide 12.5 mg, which has no apparent pharmacologic basis and is like the result of random variability in both the bremelanotide and placebo sub-groups. As noted, there was no similar finding in the 4 other antihypertensive panels.

[3] = Blood pressure by time post-dose, Bremelanotide 2 mg SC vs placebo; type: in vivo; conditions: 2 mg SC (n = 30)
[4] = Pressor effect in obese women receiving supratherapeutic doses (6.5 mg daily) for 15 days; type: in vivo, human; conditions: 15 days at 6.5 mg daily
[5] = Repeat dosing ambulatory blood pressure monitoring study, bremelanotide 1.75 mg SC daily for 8 days then randomized withdrawal (days 9 to 16); type: in vivo, human; conditions: after 16 days of dosing of bremelanotide 1.75 mg SC
[6] = repeat doses of BMT; review of IND 64119; cited from earlier work
[7] = 2 women with history of hypertension on antihypertensive therapy
[8] = 61 women, 1.75 mg SC for 16 consecutive days
[9] = following 8 consecutive days of dosing
[10] = subject treated with Lisinopril
[11] = subject treated with chlorthalidone
[12] = subject with hypertension treated with Lisinopril, baseline (Day −1) 105/70 mmHg
[13] = subject with hypertension treated with chlorthalidone, baseline (Day −1) 121/81 mmHg
[14] = single dose 1.75 mg SC, pre-treated with hydrochlorothiazide 12.5 mg daily

Structure (SMILES): CCCC[C@H](NC(C)=O)C(=O)N[C@H]1CC(=O)NCCCC[C@@H](C(=O)O)NC(=O)[C@H](Cc2c[nH]c3ccccc23)NC(=O)[C@H](CCCN=C(N)N)NC(=O)[C@@H](Cc2ccccc2)NC(=O)[C@H](Cc2cnc[nH]2)NC1=O [bremelanotide, Ac-Nle-cyclo(-Asp-His-D-Phe-Arg-Trp-Lys)-OH]
- outlier analysis: systolic BP elevation of >150 mmHg or diastolic BP elevation >95 mmHg lasting for 120 minutes ([1]; 1.75 mg SC daily): 1 (0.8%) study participants (%)
- outlier analysis: systolic BP elevation of >160 mmHg or diastolic BP elevation of >100 mmHg lasting more than 90 minutes ([1]; 1.75 mg SC daily): 2 (1.6%) study participants (%)
- abnormalities on ECG [1, 7]: neither subject had clinically significant abnormalities on ECG
- cardiovascular TEAE [1, 7]: No cardiovascular TEAE were reported
- intensity of TEAE [1, 7]: all were mild in intensity
- increases in 24 hour BP from placebo baseline (Day −1) [1, 8]: < 1 mmHg
- increases in average daytime BPs from placebo baseline (Day −1) [1, 8]: < 1.5 mmHg
- cumulative effect on daytime BP or heart rate compared to baseline or day 8 ([1]; 16 days of consecutive administration): no cumulative increases in daytime BP or reductions in heart rate
- reductions in the heart rate ([1]; after 8 days of 1.75 mg SC daily): ≤ 1 beat/minute
- mean change from baseline in 24 hour diastolic BP ([1]; after 8 days of 1.75 mg SC daily, 127 women): below 2 mmHg
- mean change (95% CI) in daytime systolic BP ([1]; baseline BP in the 90th percentile or greater (pre-dose systolic BP >124 mmHg), n=17): −0.16 (−2.06, 1.75) mmHg
- mean change (95% CI) in daytime systolic BP ([1]; baseline systolic BP below the 90th percentile): 2.03 (1.70, 2.36) mmHg
- time of peak effects on BP post-dose [1, 9]: 3 to 5 h
- time post-dose by which BP effect attenuated [1, 9]: ≤ 8 h
- nighttime BP ([1]; following 8 days of consecutive therapy): no increases in nighttime BP
- complications or symptoms associated with transient stage 2 hypertension levels ([1]; outlier subjects): In none of these subjects were there complications or symptoms
- Change in daytime HR at Day 8 [1, 10]: −1.7 bpm
- Difference from Baseline, daytime diastolic BP at Day 8 [1, 10]: +4 diastolic
- Difference from Baseline, daytime systolic BP at Day 8 [1, 10]: +3 systolic;
- Change in daytime HR at Day 8 [1, 11]: −1.4 bpm
- Difference from Baseline, daytime diastolic BP at Day 8 [1, 11]: −4 diastolic
- Difference from Baseline, daytime systolic BP at Day 8 [1, 11]: −9 systolic;
- Day 8 Daytime BP, diastolic [1, 12]: 74 mmHg
- Day 8 Daytime BP, systolic [1, 12]: 108 mmHg
- Day 8 Daytime BP, diastolic [1, 13]: 77 mmHg
- Day 8 Daytime BP, systolic [1, 13]: 112 mmHg
- large increases in nighttime SBP in individual subjects ([2]; 4 study participants of the HCTZ panel on bremelanotide): 10-15 mmHg
- induction of hypertension by BP increases ([2]; single dose 1.75 mg SC, healthy women on antihypertensive therapy at steady-state): did not induce hypertension
- nighttime BP increase, diastolic [2, 14]: 4.5 mmHg
- nighttime BP increase, systolic [2, 14]: 5.5 mmHg
- placebo-corrected change from baseline in 24-hour systolic BP ([2]; single dose 1.75 mg SC, women pre-treated with amlodipine): 1.7 mmHg
- placebo-corrected change from baseline in 24-hour systolic BP ([2]; single dose 1.75 mg SC, women pre-treated with hydrochlorothiazide): 3.8 mmHg
- placebo-corrected change from baseline in 24 hour diastolic BP ([2]; single dose 1.75 mg SC, women pre-treated with lisinopril): 2.8 mmHg
- placebo-corrected change from baseline in 24 hour diastolic BP ([2]; single dose 1.75 mg SC, women pre-treated with metoprolol): 1.8 mmHg
- Diastolic Blood Pressure ([3]; Hour 1 post-dose): 1.00 (−3.13, 5.13)
- Systolic Blood Pressure ([3]; Hour 1 post-dose): 2.36 (−2.15, 6.87)
- Diastolic Blood Pressure ([3]; Hour 2 post-dose): 1.03 (−2.96, 5.02)
- Systolic Blood Pressure ([3]; Hour 2 post-dose): 0.01 (−4.18, 4.20)
- Diastolic Blood Pressure ([3]; Hour 3 post-dose): 1.26 (−2.74, 5.26)
- Systolic Blood Pressure ([3]; Hour 3 post-dose): 0.84 (−3.55, 5.23)
- Diastolic Blood Pressure ([3]; Hour 4 post-dose): −1.38 (−6.00, 3.24)
- Systolic Blood Pressure ([3]; Hour 4 post-dose): 0.38 (−3.13, 3.90)
- cumulative effect on blood pressure or heart rate [4]: no evidence for a cumulative effect on blood pressure or heart rate
- daytime systolic BP change by baseline BP percentile, trend [5]: Trends were similar
- duration of blood pressure effect [6]: at least four hours
- increases in systolic and diastolic blood pressures [6]: approximately 4 mmHg
